Patent US9517243B2, “Beta-mannosylceramide and stimulation of NKT cell anti-tumor immunity” (The United States of America, as represented by the …, priority 2010, dated 2016)

How the values were obtained:
CT26 lung metastasis = assay: In vivo lung metastasis assay, CT26 colon carcinoma; set-up: species or system BALB/c mice
Method: (§1) In vivo lung metastasis assay. 5×10^5 CT26 cells in 0.2 ml PBS were injected i.v. into the tail vein. Glycolipid or vehicle control (0.00025% Tween 20) was injected i.p. (in 0.2 ml PBS) within one hour after tumor challenge. Mice were sacrificed 12-16 days after tumor challenge, and lungs were stained and fixed and metastases were enumerated as previously described (Park, J. M., et al., International J. of Cancer, 114:80-87 (2004)). The same protocol was used for the B16F10 cell line, except that lungs were perfused with PBS instead of ink before removal.
For CD8^+T and NK cell depletion, mice were treated with anti-CD8 (200 μg/injection), anti-asialo GM1 (25 μl/injection), or control antibodies 1 day prior to tumor challenge, the day of challenge, and 5 and 10 days following tumor challenge. CD8^+T and NK cell depletion of >90% was confirmed by flow cytometric staining for CD8 (clone 53-6.7, BD Biosciences, Rockville, Md.) and pan-NK cell marker (clone DX5, eBioscience, San Diego, Calif.) at the conclusion of the experiment. For Gr-1^+ cell depletion, mice were injected i.p. with 100, 50, or 1 μg anti-Gr-1 antibody, 16 and 40 hours after tumor challenge. CD11b^+Gr-1^high cell depletion of >99% and CD11b^+Gr-1^intermediate cell depletion of >80% by 100 μg of anti-Gr-1 antibodies, was confirmed by flow cytometric staining for CD11b (clone M1/70, eBioscience), Gr-1 (clone RB6-8C5, BD Biosciences), Ly-6C (clone AL-21, BD Biosciences) and Ly6G. (clone 1A8, BD Biosciences). Where indicated, mice received 0.2 mg L-NAME or D-NAME i.p. twice per day on the day of tumor challenge, the day after tumor challenge, and once daily for 2 weeks after tumor injection. Blockade of TNF-α was achieved by administration of 100 μg of etanercept every other day, beginning immediately following tumor challenge, per the method of Fichtner-Feigl, S., et al., Cancer Res., 68:3467-3475 (2008). For PPARγ inhibition, mice were treated 0.15 mg/ml GW9662 (200 μL i.p.) or vehicle control (0.5% DMSO in PBS) immediately following tumor challenge, and then 30 minutes prior to glycolipid administration, via the method of Coste, A., et al., J. Immunol., 180:4939-4947 (2008).

[1] = tested on: B16F10 melanoma lung metastasis; assay: In vivo lung metastasis assay, B16F10 melanoma; settings: C57BL/6 mice, dose titration; FIG. 12
Method: as §1

iNKT cells = assay: In vitro iNKT activation (CFSE dilution, splenocytes); type: cell-based, mice
Method: In vitro iNKT activation. Splenocytes were harvested from mice (n=3), and erythrocytes were depleted with ACK Lysis Buffer (Lonza, Walkersville, Md.). Cells were labeled with 0.1 μM CFSE (Invitrogen, Carlsbad, Calif.) for 15 minutes at room temperature. Labeled cells (4×10^6 cells/well of 24-well plate) were stimulated for 3.5 days with glycolipid or vehicle control. At the end of the culture, cells were harvested and stained with PBS57-loaded CD1d tetramer (NIH Tetramer Facility) and anti-CD3 (clone 145-2C11, Biolegend). The fluorescence of stained cells was measured by FACSCalibur (BD Biosciences), and data were analyzed by Flowjo (Tree Star, Inc., Ashland, Oreg.).

[2] = tested on: DN32.D3 NKT cell hybridoma; assay: Plate-bound mCD1d hybridoma stimulation assay, DN32.D3; type: cell-based, mouse
Method: Plate-bound mCD1d hybridoma stimulation assay. Protocol was modified from that of Gumperz et al. (Gumperz, J. E., et al., Immunity, 12(2):211-221 (2000)). mCD1d dimer/Ig fusion protein (BD Biosciences) was incubated with the indicated concentrations of glycolipid in pH 5 sodium acetate buffer containing 0.01% Tween20 and 45 μg/ml saposin C (provided by Nico Tjandra and Motoshi Suzuki [both from National Heart, Lung, and Blood Institute, NIH, Bethesda, Md., USA]) overnight at 37° C. The mCD1d dimers loaded with glycolipid were loaded onto 96-well Protein G Plates (Pierce, Rockford, Ill.) and incubated for 48 hours at 37° C. The plates were washed with PBS and tissue culture media to remove anything not coated on the plates. 1×10^5 24.9. E or DN32.D3 iNKT hybridoma cells were added to each well and incubated at 37° C. and 5% CO2 for 24 hours. Supernatants were collected and analyzed for IL-2 by ELISA.

BALB/c splenocytes = assay: In vitro cytokine assay (ELISA); type: cell-based, BALB/c mice; settings: 48 hours
Method: In vitro cytokine assay. Splenocytes (8×10^5/well of 96 well plates) from BALB/c mice were stimulated with glycolipid or solvent control for 48 hours. Supernatants were collected, and the concentration of IFN-γ, IL-4, or IL-13 was determined by ELISA.

activated NKT cells = assay: Anergy: re-stimulation of splenocytes one month after in vivo treatment; set-up: species or system mice
Method: FIG. 13A is a graph showing splenocyte proliferation measured by ^3H-thymidine incorporation during the final 8 hours of a 72-hour culture after being re-stimulated in culture. Pretreatment with α-GalCer induces anergy but pretreatment with β-ManCer induces much less anergy.
FIG. 13B is a graph showing the amount of IFN-γ produced by the splenocyte culture after 48 hours of re-stimulation.
It is known that α-GalCer induces strong anergy of activated NKT cells for over a month after in vivo stimulation. […] Mice were treated with α-GalCer, β-ManCer, or vehicle, and one month later, splenocytes were re-stimulated, and the degree of activation was measured by proliferation and IFN-γ production.

CCCCCCCCCCCCCCCCCCCCCCCCCC(=O)N[C@@H](COC1OC(CO)C(O)C(O)C1O)[C@H](O)[C@H](O)CCCCCCCCCCCCCC (stereo partly drawn) [β-ManCer, 2-hexacosanoylamino-1-O-β-mannopyranosyl-D-ribo-1,3,4-octadecanetriol]
Effect of TNF-α blockade (TNF-αR-Fc, etanercept) on protection (CT26 lung metastasis; 100 μg etanercept every other day, FIG. 10C): completely reversed the protection | Effect of PPARγ inhibition with GW 9662 on induced protection (CT26 lung metastasis; 0.15 mg/ml GW9662 200 μL i.p., 50 pmoles glycolipid, FIG. 2C): no effect | Potency of tumor protection relative to α-ManCer and β-GalCer (CT26 lung metastasis; CT26 lung metastasis, 50 vs 5,000 pmoles): 100 fold | Fewer lung nodules compared to vehicle control mice (CT26 lung metastasis; IFN-γ knockout mice, 50 pmoles, p=0.0079, FIG. 9A): 50% | Protection in IFN-γ−/− mice when NOS was inhibited (CT26 lung metastasis; IFN-γ−/− mice, L-NAME, FIG. 10B): completely lost | Tumor protection in Jα18KO mice (lack only iNKT cells) (CT26 lung metastasis; Jα18KO BALB/c mice, FIG. 2B): All protection was lost | Protection against CT26 lung metastasis (CT26 lung metastasis; WT BALB/c, glycolipid i.p. within one hour after tumor challenge, β-ManCer 50 pmoles, FIG. 2A): strong protection | Effect of NOS inhibition (L-NAME vs D-NAME) on tumor protection (CT26 lung metastasis; WT mice, 50 pmoles glycolipid, 0.2 mg L-NAME i.p., FIG. 6, 10A): significantly inhibited protection | Effect of depletion of Gr-1+ cells on tumor protection (CT26 lung metastasis; anti-Gr-1 antibodies, FIG. 10D): no effect | Rank order of tumor protection (CT26 lung metastasis; dose of 50 pmoles, FIG. 2D): similarly protective | Tumor protection against B16F10 melanoma lung metastasis, relative to α-GalCer [1]: at least as potent | Inhibition of iNKT proliferation by CD1d-blocking antibody (iNKT cells; 3.5-day stimulation): 86% | Proliferation of iNKT cells (CFSE dilution) (iNKT cells; 3.5-day stimulation of mouse splenocytes, FIG. 3): 40% | Proliferation of iNKT cells with CD1d-blocking antibody (iNKT cells; 3.5-day stimulation, CD1d-blocking antibody): 5.4% | Increase in IL-2 production over unloaded mCD1d ([2]; DN32.D3): over 500 fold | IL-2 production, glycolipid-loaded mCD1d dimers ([2]; DN32.D3, 24 hours, no APCs, FIG. 5): able to induce IL-2 production | IL-2 production, soluble glycolipid in the absence of CD1d ([2]; DN32.D3, FIG. 5): failed to induce IL-2 production above background | Cytokine production in vitro (overall) (BALB/c splenocytes; IFN-γ, IL-4, IL-13): least cytokine production | Cytokines at concentrations less than 30 nM (BALB/c splenocytes; glycolipid less than 30 nM): no cytokines detected | IFN-γ production on re-stimulation, compared to cells from vehicle-treated mice (activated NKT cells; 48 hours of re-stimulation, FIG. 13B): slight reduction | Splenocyte proliferation on re-stimulation, compared to cells from vehicle-treated mice (activated NKT cells; re-stimulation with α-GalCer or β-ManCer, 3H-thymidine, 72-hour culture, FIG. 13A): slight reduction
